Test results as given in PubChem BioAssay AID248 (DTP/NCI, 2004).
Values joined by “and” are separate entries in the source; they are usually repeats but may differ in a detail not shown here. Identical values can stand only once. Inconclusive results and toxic doses are left out.

System: L1210 leukemia ip in BDF1 mice, survival T/C
Assay: NCI In Vivo Anticancer Drug Screen. Data for tumor model L1210 Leukemia (intraperitoneal) in B6D2F1 (BDF1) mice
Conditions: endpoint: mean survival time, higher = longer survival
Method in brief: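 In this screen, tumor-bearing mice given compound are compared to those given vehicle, and their survival values are reported as a treated-to-control quotient.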

[1] = dose: 100.0 mg/kg/injection, schedule: Q01DX001 (ip), vehicle: saline
[2] = dose: 5.0 mg/kg/injection, schedule: Q01DX001 (ip), vehicle: other
[3] = dose: 10.0 mg/kg/injection, schedule: Q01DX001 (ip), vehicle: other
[4] = dose: 100.0 mg/kg/injection, schedule: Q04DX003 (ip), vehicle: saline with Tween-80
[5] = dose: 200.0 mg/kg/injection, schedule: Q04DX003 (ip), vehicle: saline with Tween-80
[6] = dose: 100.0 mg/kg/injection, schedule: Q01DX001 (ip), vehicle: carboxymethylcellulose (CMC)
[7] = dose: 200.0 mg/kg/injection, schedule: Q01DX001 (ip), vehicle: carboxymethylcellulose (CMC)

CNc1nc2c(N)ncnc2n1C1OC(CO)C(O)C1O (stereo unspecified)
T/C (dose: 12.5 mg/kg/injection, schedule: Q04DX002 (ip), vehicle: saline): 100 % of control | T/C (dose: 25.0 mg/kg/injection, schedule: Q04DX002 (ip), vehicle: saline): 103 % of control | T/C (dose: 25.0 mg/kg/injection, schedule: Q04DX002 (ip), vehicle: suspension in saline): 104 % of control | T/C (dose: 50.0 mg/kg/injection, schedule: Q01DX001 (ip), vehicle: saline): 104 % of control | T/C (dose: 50.0 mg/kg/injection, schedule: Q04DX002 (ip), vehicle: saline): 113 % of control | T/C (dose: 50.0 mg/kg/injection, schedule: Q04DX002 (ip), vehicle: suspension in saline): 106 % of control | T/C [1]: 110 % of control | T/C (dose: 100.0 mg/kg/injection, schedule: Q04DX002 (ip), vehicle: suspension in saline): 106 % of control

CC(=O)NC(CCC(=O)C=[N+]=N)C(=O)O (stereo unspecified)
T/C (dose: 0.1 mg/kg/injection, schedule: Q01DX009 (ip), vehicle: other): 98 % of control and 100 % of control and 101 % of control | T/C (dose: 0.2 mg/kg/injection, schedule: Q01DX009 (ip), vehicle: other): 105 % of control and 116 % of control (2×) | T/C (dose: 0.2 mg/kg/injection, schedule: Q01DX015 (ip), vehicle: saline): 108 % of control | T/C (dose: 0.4 mg/kg/injection, schedule: Q01DX001 (ip), vehicle: saline): 106 % of control | T/C (dose: 0.4 mg/kg/injection, schedule: Q01DX009 (ip), vehicle: other): 100 % of control | T/C (dose: 0.4 mg/kg/injection, schedule: Q01DX015 (ip), vehicle: saline): 120 % of control | T/C (dose: 0.5 mg/kg/injection, schedule: Q01DX001 (ip), vehicle: other): 109 % of control | T/C (dose: 0.5 mg/kg/injection, schedule: Q01DX001 (ip), vehicle: saline): 113 % of control | T/C (dose: 0.5 mg/kg/injection, schedule: Q04DX003 (ip), vehicle: other): 113 % of control | T/C (dose: 0.5 mg/kg/injection, schedule: Q08DX002 (ip), vehicle: other): 106 % of control | T/C (dose: 0.6 mg/kg/injection, schedule: Q01DX001 (ip), vehicle: saline): 110 % of control | T/C (dose: 0.6 mg/kg/injection, schedule: Q01DX015 (ip), vehicle: saline): 123 % of control | T/C (dose: 0.8 mg/kg/injection, schedule: Q01DX009 (ip), vehicle: other): 119 % of control | T/C (dose: 1.0 mg/kg/injection, schedule: Q01DX001 (ip), vehicle: other): 106 % of control | T/C (dose: 1.0 mg/kg/injection, schedule: Q01DX009 (ip), vehicle: other): 122 % of control | T/C (dose: 1.0 mg/kg/injection, schedule: Q01DX015 (ip), vehicle: saline): 121 % of control | T/C (dose: 1.0 mg/kg/injection, schedule: Q04DX003 (ip), vehicle: other): 120 % of control | T/C (dose: 1.0 mg/kg/injection, schedule: Q08DX002 (ip), vehicle: other): 109 % of control | T/C (dose: 1.5 mg/kg/injection, schedule: Q01DX001 (ip), vehicle: saline): 114 % of control | T/C (dose: 2.0 mg/kg/injection, schedule: Q01DX001 (ip), vehicle: other): 111 % of control | T/C (dose: 2.0 mg/kg/injection, schedule: Q01DX001 (ip), vehicle: saline): 122 % of control | T/C (dose: 2.0 mg/kg/injection, schedule: Q01DX009 (ip), vehicle: other): 96 % of control | T/C (dose: 2.0 mg/kg/injection, schedule: Q04DX003 (ip), vehicle: other): 120 % of control | T/C (dose: 2.0 mg/kg/injection, schedule: Q08DX002 (ip), vehicle: other): 111 % of control | T/C (dose: 4.0 mg/kg/injection, schedule: Q01DX001 (ip), vehicle: saline): 112 % of control | T/C (dose: 4.0 mg/kg/injection, schedule: Q04DX003 (ip), vehicle: other): 117 % of control | T/C [2]: 111 % of control | T/C (dose: 5.0 mg/kg/injection, schedule: Q03HX008 (ip), vehicle: other): 117 % of control | T/C (dose: 5.0 mg/kg/injection, schedule: Q03HX024 (ip), vehicle: other): 150 % of control | T/C (dose: 5.0 mg/kg/injection, schedule: Q08DX002 (ip), vehicle: other): 121 % of control | T/C [3]: 122 % of control | T/C (dose: 10.0 mg/kg/injection, schedule: Q03HX008 (ip), vehicle: other): 118 % of control | T/C (dose: 10.0 mg/kg/injection, schedule: Q03HX024 (ip), vehicle: other): 187 % of control | T/C (dose: 16.0 mg/kg/injection, schedule: Q01DX001 (ip), vehicle: saline): 117 % of control | T/C (dose: 20.0 mg/kg/injection, schedule: Q03HX008 (ip), vehicle: other): 110 % of control | T/C (dose: 20.0 mg/kg/injection, schedule: Q03HX024 (ip), vehicle: other): 172 % of control | T/C (dose: 32.0 mg/kg/injection, schedule: Q01DX001 (ip), vehicle: saline): 118 % of control | T/C (dose: 40.0 mg/kg/injection, schedule: Q03HX008 (ip), vehicle: other): 121 % of control | T/C (dose: 40.0 mg/kg/injection, schedule: Q03HX016 (ip), vehicle: other): 150 % of control | T/C (dose: 40.0 mg/kg/injection, schedule: Q03HX024 (ip), vehicle: other): 112 % of control

N=c1c2ncn(C3CCCC3)c2ncn1O
T/C (dose: 50.0 mg/kg/injection, schedule: Q01DX009 (ip), vehicle: saline with Tween-80): 114 % of control | T/C (dose: 50.0 mg/kg/injection, schedule: Q04DX003 (ip), vehicle: saline with Tween-80): 106 % of control | T/C (dose: 100.0 mg/kg/injection, schedule: Q01DX001 (ip), vehicle: saline with Tween-80): 98 % of control | T/C (dose: 100.0 mg/kg/injection, schedule: Q01DX009 (ip), vehicle: saline with Tween-80): 103 % of control | T/C [4]: 95 % of control | T/C (dose: 200.0 mg/kg/injection, schedule: Q01DX001 (ip), vehicle: saline with Tween-80): 98 % of control | T/C (dose: 200.0 mg/kg/injection, schedule: Q01DX009 (ip), vehicle: saline with Tween-80): 115 % of control | T/C [5]: 94 % of control

Cc1ccc(S(=O)(=O)NC(CC(C)C)C(=O)O)cc1 (stereo unspecified)
T/C (dose: 100.0 mg/kg/injection, schedule: Q01DX001 (ip), vehicle: other): 101 % of control | T/C (dose: 200.0 mg/kg/injection, schedule: Q01DX001 (ip), vehicle: other): 96 % of control | T/C (dose: 400.0 mg/kg/injection, schedule: Q01DX001 (ip), vehicle: other): 98 % of control

CN(C)c1ncnc2c1ncn2C1CCC(CO)C1 (stereo unspecified)
T/C [6]: 105 % of control | T/C [7]: 96 % of control

Nn1c(=S)[nH][nH]c1=S
T/C (dose: 100.0 mg/kg/injection, schedule: Q04DX003 (ip), vehicle: saline): 97 % of control | T/C (dose: 200.0 mg/kg/injection, schedule: Q04DX003 (ip), vehicle: saline): 103 % of control | T/C (dose: 400.0 mg/kg/injection, schedule: Q04DX003 (ip), vehicle: saline): 98 % of control

CC(=O)Oc1c2ccccc2c(OC(C)=O)c2cc(/C=C/C(=O)O)ccc12
T/C [4]: 95 % of control | T/C [5]: 90 % of control | T/C (dose: 400.0 mg/kg/injection, schedule: Q04DX003 (ip), vehicle: saline with Tween-80): 88 % of control

CC1([N+](=O)[O-])COP(=O)(O)OC1 (stereo unspecified) (tested in a mixture with another compound)
T/C [6]: 109 % of control | T/C [1]: 101 % of control [middle of 4 runs] | T/C [7]: 109 % of control | T/C (dose: 200.0 mg/kg/injection, schedule: Q01DX001 (ip), vehicle: saline): 102 % of control [middle of 4 runs] | T/C (dose: 400.0 mg/kg/injection, schedule: Q01DX001 (ip), vehicle: carboxymethylcellulose (CMC)): 107 % of control | T/C (dose: 400.0 mg/kg/injection, schedule: Q01DX001 (ip), vehicle: saline): 101 % of control and 102 % of control and 103 % of control

O=C1CCCCC1C(=O)C(F)(F)F (stereo unspecified)
T/C (dose: 12.5 mg/kg/injection, schedule: Q01DX009 (ip), vehicle: other): 104 % of control | T/C (dose: 12.5 mg/kg/injection, schedule: Q04DX003 (ip), vehicle: other): 103 % of control | T/C (dose: 25.0 mg/kg/injection, schedule: Q01DX009 (ip), vehicle: other): 104 % of control | T/C (dose: 25.0 mg/kg/injection, schedule: Q04DX003 (ip), vehicle: other): 93 % of control | T/C (dose: 50.0 mg/kg/injection, schedule: Q01DX009 (ip), vehicle: other): 98 % of control | T/C (dose: 50.0 mg/kg/injection, schedule: Q04DX003 (ip), vehicle: other): 97 % of control | T/C (dose: 75.0 mg/kg/injection, schedule: Q01DX009 (ip), vehicle: other): 97 % of control | T/C (dose: 115.0 mg/kg/injection, schedule: Q01DX009 (ip), vehicle: other): 87 % of control | T/C (dose: 170.0 mg/kg/injection, schedule: Q01DX009 (ip), vehicle: other): 89 % of control

S=C([S][Sb]([c]1ccccc1)[c]1ccccc1)N(c1ccccc1)c1ccccc1
T/C [2]: 102 % of control | T/C [3]: 102 % of control | T/C (dose: 20.0 mg/kg/injection, schedule: Q01DX001 (ip), vehicle: other): 98 % of control | T/C (dose: 40.0 mg/kg/injection, schedule: Q01DX001 (ip), vehicle: other): 107 % of control
